Experimental data published in US6150385A, “1,3,4-thiadiazoles useful for the treatment of CMV infections” (Pharmacia & Upjohn Company, priority 1999, dated 2000).

Molecular target: T1, HCMV polymerase (Human cytomegalovirus, UniProt P08546)
T1 construct: made in house; host or cells: SF-9 insect cells infected with recombinant baculovirus
Experiment: HCMV polymerase assay (scintillation proximity assay)
Format: biochemical
Conditions: percentage of inhibition at 25 μM concentration in CMV polymerase assay
Outline: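 Baculovirus/SF-9-expressed HCMV polymerase in 5.4 mM HEPES pH 7.5, 11.7 mM KCl, 4.5 mM MgCl2, 0.36 mg/ml BSA, 90 nM 3H-dTTP, with or without 2 mM CHAPS. Started with 6 nM biotinylated poly(dA)-oligo(dT), 30 min at 25 or 37 °C, EDTA-stopped, read by streptavidin-SPA counting; % inhibition at 25 μM.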

T1 sequence (P08546 whole entry): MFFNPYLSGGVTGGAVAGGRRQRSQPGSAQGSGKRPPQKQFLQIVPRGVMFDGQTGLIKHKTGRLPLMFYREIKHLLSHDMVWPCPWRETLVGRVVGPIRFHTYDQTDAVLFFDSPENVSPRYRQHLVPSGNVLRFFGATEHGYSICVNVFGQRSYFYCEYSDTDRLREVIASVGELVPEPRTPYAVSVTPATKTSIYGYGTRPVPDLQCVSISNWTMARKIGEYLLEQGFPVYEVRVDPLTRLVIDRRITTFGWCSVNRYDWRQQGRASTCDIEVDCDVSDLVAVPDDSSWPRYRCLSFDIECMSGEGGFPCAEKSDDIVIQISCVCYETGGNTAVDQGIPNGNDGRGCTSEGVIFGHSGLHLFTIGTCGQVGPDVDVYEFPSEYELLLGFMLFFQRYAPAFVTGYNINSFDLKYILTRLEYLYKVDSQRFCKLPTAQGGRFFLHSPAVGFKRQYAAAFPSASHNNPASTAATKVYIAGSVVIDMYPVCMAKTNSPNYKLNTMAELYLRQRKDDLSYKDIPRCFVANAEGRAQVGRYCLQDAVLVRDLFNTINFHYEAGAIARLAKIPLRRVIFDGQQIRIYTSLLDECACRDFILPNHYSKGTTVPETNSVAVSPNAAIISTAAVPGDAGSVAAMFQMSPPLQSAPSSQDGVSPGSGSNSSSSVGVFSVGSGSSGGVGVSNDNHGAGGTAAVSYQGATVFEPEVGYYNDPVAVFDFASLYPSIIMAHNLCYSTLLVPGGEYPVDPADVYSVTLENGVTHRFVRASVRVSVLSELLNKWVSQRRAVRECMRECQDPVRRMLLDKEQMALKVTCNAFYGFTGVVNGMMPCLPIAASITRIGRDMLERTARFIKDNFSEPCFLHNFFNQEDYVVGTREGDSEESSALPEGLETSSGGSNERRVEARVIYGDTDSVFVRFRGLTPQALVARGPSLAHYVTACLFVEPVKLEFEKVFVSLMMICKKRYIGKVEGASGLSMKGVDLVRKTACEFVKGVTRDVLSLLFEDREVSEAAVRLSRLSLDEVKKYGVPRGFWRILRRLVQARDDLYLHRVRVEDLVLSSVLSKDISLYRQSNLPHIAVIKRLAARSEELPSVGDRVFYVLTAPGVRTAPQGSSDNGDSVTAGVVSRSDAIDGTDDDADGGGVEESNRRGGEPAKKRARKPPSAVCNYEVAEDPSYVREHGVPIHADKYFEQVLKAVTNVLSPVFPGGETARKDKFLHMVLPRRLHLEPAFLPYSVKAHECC

inhibition at 25 µM [%] | Structure (SMILES) | % Inhib [%]
20.6 | CCCCC(CC)CNc1nnc(NC(=O)c2ccc(Cl)c(Cl)c2)s1 (centres unmarked) [compound 461, 3,4-dichloro-N-{5-[(2-ethylhexyl)amino]-1,3,4-thiadiazol-2-yl}benzamide] | –
20.1 | CN1CCN(CCCNc2nnc(NC(=O)c3ccc(I)cc3)s2)CC1 [compound 467] | –
26.2 | CC(C)(C)CNc1nnc(NC(=O)c2c(Cl)cccc2Cl)s1 [compound 392, 2,6-dichloro-N-[5-(neopentylamino)-1,3,4-thiadiazol-2-yl]benzamide] | –
30.3 | O=C(Nc1nnc(NCCc2c[nH]c3ccccc23)s1)c1ccc(Br)cc1 [compound 351, 4-bromo-N-(5-{[2-(1H-indol-3-yl)ethyl]amino}-1,3,4-thiadiazol-2-yl)benzamide] | –
30.7 | O=C(CCCCCl)Nc1nnc(NCCc2c[nH]c3ccccc23)s1 [compound 346, 5-chloro-N-(5-{[2-(1H-indol-3-yl)ethyl]amino}-1,3,4-thiadiazol-2-yl)pentanamide] | –
30.3 | O=C(Nc1nnc(NCc2ccco2)s1)c1cc2ccccc2s1 [compound 349, N-{5-[(2-furylmethyl)amino]-1,3,4-thiadiazol-2-yl}-1-benzothiophene-2-carboxamide] | –
35.4 | O=C(Nc1nnc(NCCc2c[nH]c3ccccc23)s1)c1ccc(Cl)c(Cl)c1 [compound 295, 3,4-dichloro-N-(5-{[2-(1H-indol-3-yl)ethyl]amino}-1,3,4-thiadiazol-2-yl)benzamide] | –
39.6 | CC(C)c1cc(C(C)C)c(C(=O)Nc2nnc(NCCCCc3ccccc3)s2)c(C(C)C)c1 [compound 260, 2,4,6-triisopropyl-N-{5-[(4-phenylbutyl)amino]-1,3,4-thiadiazol-2-yl}benzamide] | –
25.9 | Cc1ccc(C(=O)Nc2nnc(NCCCN3CCCC3=O)s2)cc1 [compound 395, 4-methyl-N-(5-{[3-(2-oxo-1-pyrrolidinyl)propyl]amino}-1,3,4-thiadiazol-2-yl)benzamide] | –
20.1 | O=C(Nc1nnc(NCCN2CCOCC2)s1)c1cccc([N+](=O)[O-])c1 [compound 469, N-{5-[(2-morpholinoethyl)amino]-1,3,4-thiadiazol-2-yl}-3-nitrobenzamide] | –
34.9 | CC(C)c1cc(C(C)C)c(C(=O)Nc2nnc(NCCC(c3ccccc3)c3ccccc3)s2)c(C(C)C)c1 [compound 299, N-{5-[(3,3-diphenylpropyl)amino]-1,3,4-thiadiazol-2-yl}-2,4,6-triisopropylbenzamide] | –
34.8 | O=C(Nc1nnc(NCc2ccc(F)cc2)s1)c1cccc([N+](=O)[O-])c1 [compound 302, N-{5-[(4-fluorobenzyl)amino]-1,3,4-thiadiazol-2-yl}-3-nitrobenzamide] | –
32.1 | O=C(/C=C/c1ccccc1)Nc1nnc(NCCC(c2ccccc2)c2ccccc2)s1 [compound 331, (E)-N-{5-[(3,3-diphenylpropyl)amino]-1,3,4-thiadiazol-2-yl}-3-phenyl-2-propenamide] | –
21.3 | COc1ccccc1C(=O)Nc1nnc(NCc2ccc(Cl)c(Cl)c2)s1 [compound 452, N-{5-[(3,4-dichlorobenzyl)amino]-1,3,4-thiadiazol-2-yl}-2-methoxybenzamide] | –
20 | O=C(Nc1nnc(NCC2CC2)s1)c1ccc(I)cc1 [compound 470, N-{5-[(cyclopropylmethyl)amino]-1,3,4-thiadiazol-2yl}-4-iodobenzamide] | –
20.1 | O=C(Nc1nnc(NC2CCCc3ccccc32)s1)c1cc(F)cc(F)c1 (centres unmarked) [compound 468, 3,5-difluoro-N-[5-(1,2,3,4-tetrahydro-1-naphthalenylamino)-1,3,4-thiadiazol-2-yl]benzamide] | –
27.3 | COc1ccccc1C(=O)Nc1nnc(NCCC(c2ccccc2)c2ccccc2)s1 [compound 383, N-{5-[(3,3-diphenylpropyl)amino]-1,3,4-thiadiazol-2-yl}-2-methoxybenzamide] | –

The remaining lines, values behind:

Structure (SMILES) | inhibition at 25 µM [%] | % Inhib [%]
CCSCCNc1nnc(NC(=O)/C=C/c2ccccc2Cl)s1 [compound 193, (E)-3-(2-chlorophenyl)-N-(5-{[2-(ethylsulfanyl)ethyl]amino}-1,3,4-thiadiazol-2-yl)-2-propenamide] | 46.9 | –
O=C(CCCCCl)Nc1nnc(NCCC(c2ccccc2)c2ccccc2)s1 [compound 183, 5-chloro-N-{5-[(3,3-diphenylpropyl)amino]-1,3,4-thiadiazol-2-yl}pentanamide] | 48.1 | –
CCOc1ccc2ccccc2c1C(=O)Nc1nnc(NCc2cccs2)s1 [compound 78, 2-ethoxy-N-{5-[(2-thienylmethyl)amino]-1,3,4-thiadiazol-2-yl}-1-naphthamide] | 68.2 | –
CC(C)c1cc(C(C)C)c(C(=O)Nc2nnc(NCCCNC3CCCCC3)s2)c(C(C)C)c1 [compound 36, N-(5-{[3-(cyclohexylamino)propyl]amino}-1,3,4-thiadiazol-2-yl)-2,4,6-triisopropylbenzamide] | 87.6 | –
O=C(Nc1nnc(NCCCN2CCCC2=O)s1)c1ccc(Cl)c(Cl)c1 [compound 191, 3,4-dichloro-N-(5-{[3-(2-oxo-1-pyrrolidinyl)propyl]amino}-1,3,4-thiadiazol-2-yl)benzamide] | 47.1 | –
NS(=O)(=O)c1ccc(CCNc2nnc(NC(=O)/C=C/c3ccccc3)s2)cc1 [compound 50, (E)-N-(5-{[4-(aminosulfonyl)phenethyl]amino}-1,3,4-thiadiazol-2-yl)-3-phenyl-2-propenamide] | 79.8 | –
CCCCCCCC/C=C/CCCCCCCC(=O)Nc1nnc(NCCC#N)s1 [compound 249, (E)-N-{5-[(2-cyanoethyl)amino]-1,3,4-thiadiazol-2-yl}-9-octadecenamide] | 40.6 | –
CCOc1ccc2ccccc2c1C(=O)Nc1nnc(NC2CCCCCC2)s1 [compound 157, N-[5-(cycloheptylamino)-1,3,4-thiadiazol-2-yl]-2-ethoxy-1-naphthamide] | 53 | –
CCCCCCCCCCCNc1nnc(NC(=O)c2cc3ccccc3s2)s1 [compound 257, N-[5-(undecylamino)-1,3,4-thiadiazol-2-yl]-1-benzothiophene-2-carboxamide] | 39.8 | –
Cc1ccc(C(=O)Nc2nnc(NCCCNC3CCCCC3)s2)cc1 [compound 162, N-(5-{[3-(cyclohexylamino)propyl]amino}-1,3,4-thiadiazol-2-yl)-4-methylbenzamide] | 51.8 | –
O=C(Nc1nnc(NC2CCCCCC2)s1)c1ccc(S(=O)(=O)F)cc1 [compound 278, 4-({[5-(cycloheptylamino)-1,3,4-thiadiazol-2-yl]amino}carbonyl)benzenesulfonyl fluoride] | – | 37.5
O=C(Nc1nnc(NC2CCCCCC2)s1)c1ccc([N+](=O)[O-])o1 [compound 104, N-[5-(cycloheptylamino)-1,3,4-thiadiazol-2-yl]-5-nitro-2-furamide] | 64.7 | –
CCOc1ccc2ccccc2c1C(=O)Nc1nnc(NCc2ccc(OC)c(OC)c2)s1 [compound 122, N-{5-[(3,4-dimethoxybenzyl)amino]-1,3,4-thiadiazol-2-yl}-2-ethoxy-1-naphthamide] | 59.5 | –
O=C(Nc1nnc(NC2CCCCCC2)s1)c1cccc([N+](=O)[O-])c1 [compound 201, N-[5-(cycloheptylamino)-1,3,4-thiadiazol-2-yl]-3-nitrobenzamide] | 45.3 | –
CCCCCCCC/C=C/CCCCCCCC(=O)Nc1nnc(NCCNC(C)=O)s1 [compound 123, (E)-N-(5-{[2-(acetylamino)ethyl]amino}-1,3,4-thiadiazol-2-yl)-9-octadecenamide] | 59.2 | –
O=C(Nc1nnc(NCc2ccco2)s1)c1c(Cl)cccc1Cl [compound 174, 2,6-dichloro-N-{5-[(2-furylmethyl)amino]-1,3,4-thiadiazol-2-yl}benzamide] | 49.5 | –
CC1(C)C2CC[C@@H](CNc3nnc(NC(=O)c4ccc5c(c4)C(=O)OC5=O)s3)C1C2 (stereo partly drawn) [compound 25, N-[5-({[(2R)-6,6-dimethylbicyclo[3.1.1]hept-2-yl]methyl}amino)-1,3,4-thiadiazol-2-yl]-1,3-dioxo-1,3-dihydro-2-benzofuran-5-carboxamide] | 93.9 | –
O=C(Nc1nnc(NCCc2c[nH]c3ccccc23)s1)c1c(Cl)cccc1Cl [compound 255, 2,6-dichloro-N-(5-{[2-(1H-indol-3-yl)ethyl]amino}-1,3,4-thiadiazol-2-yl)benzamide] | 39.9 | –
O=C(CCCCCl)Nc1nnc(NCCSc2ccccc2)s1 [compound 254, 5-chloro-N-(5-{[2-(phenylsulfanyl)ethyl]amino]-1,3,4-thiadiazol-2-yl)pentanamide] | 40 | –
O=C(Nc1nnc(NCCCNC2CCCCC2)s1)c1cc2ccccc2s1 [compound 62, N-(5-{[3-(cyclohexylamino)propyl]amino}-1,3,4-thiadiazol-2-yl)-1-benzothiophene-2-carboxamide] | 74 | –
CCCCCCCC/C=C/CCCCCCCC(=O)Nc1nnc(NC2CCC2)s1 [compound 199, (E)-N-[5-(cyclobutylamino)-1,3,4-thiadiazol-2-yl]-9-octadecenamide] | 46 | –
O=C(Nc1nnc(NCCCCc2ccccc2)s1)c1ccc(I)cc1 [compound 59, 4-iodo-N-{5-[(4-phenylbutyl)amino]-1,3,4-thiadiazol-2-yl}benzamide] | 74.6 | –
O=C(/C=C/c1ccccc1)Nc1nnc(NCCc2c[nH]cn2)s1 [compound 215, (E)-N-(5-{[2-(1H-imidazol-4-yl)ethyl]amino}-1,3,4-thiadiazol-2-yl)-3-phenyl-2-propenamide] | 44.1 | –
O=C(/C=C/c1ccccc1)Nc1nnc(NCCCNC2CCCCC2)s1 [compound 124, (E)-N-(5-{[3-(cyclohexylamino)propyl]amino}-1,3,4-thiadiazol-2-yl)-3-phenyl-2-propenamide] | 59.2 | –
